Results taken from ChEMBL document CHEMBL4340519, “The effects of Arctigenin-Valine ester on chemotherapy-induced myelosuppression in mice” (Bioorg Med Chem, 2019).
Activity calls are given as the source filed them. The calls are words filed in the database; no cut-off is given here.

Experiments:
Mus musculus [1] = assay: Protection against CTX-induced myelosuppression in BALB/c mouse assessed as effect on RBC level at 10 mg/kg, ip administered daily for 7 days starting from 3 days post-CTX challenge measured 24 hrs post-last dose (reference value: 8.63 +/- 0.68 10^12/L); assay type: functional
[2] = Toxicity in BALB/c mouse assessed as effect on appearance of shiny hair at 5 to 10 mg/kg, ip administered daily for 7 days measured during compound dosing; assay type: organism-based; details: in vivo, 168 h
[3] = Toxicity in BALB/c mouse assessed as change in body temperature at 5 to 10 mg/kg, ip administered daily for 7 days measured during compound dosing; assay type: organism-based; details: in vivo, 168 h
Mus musculus [4] = assay: (§1) Protection against CTX-induced myelosuppression in BALB/c mouse assessed as improvement in hematopoiesis by decrease in erythropoietin level at 5 to 10 mg/kg, ip administered daily for 7 days starting from 3 days post-CTX challenge measured 24 hrs post-last dose by ELISA; assay type: functional, organism-based
Mus musculus [5] = assay: Protection against CTX-induced myelosuppression in BALB/c mouse assessed as effect on HGB level at 5 mg/kg, ip administered daily for 7 days starting from 3 days post-CTX challenge measured 24 hrs post-last dose (reference value: 113.2 +/- 6.66 g/L); assay type: functional
Mus musculus [6] = assay: Protection against CTX-induced myelosuppression in BALB/c mouse assessed as improvement in immunity by measuring spleen index at 10 mg/kg, ip administered daily for 7 days starting from 3 days post-CTX challenge measured 24 hrs post-last dose (reference value: 8.94 +/- […]); assay type: functional
Mus musculus [7] = assay: Protection against CTX-induced toxicity in BALB/c mouse assessed as loss of depilation at 5 to 10 mg/kg, ip administered daily for 7 days starting from 3 days post-CTX challenge and measured during compound dosing; assay type: functional, organism-based
[8] = Toxicity in BALB/c mouse assessed as behavioral changes at 5 to 10 mg/kg, ip administered daily for 7 days measured during compound dosing; assay type: organism-based; details: in vivo, 168 h
Mus musculus [9] = assay: (§2) Protection against CTX-induced myelosuppression in BALB/c mouse assessed as change in hematopoietic progenitor cell cycle distribution by decrease in accumulation at G0/G1-phase at 5 to 10 mg/kg, ip administered daily for 7 days starting from 3 days post-CTX challenge measured 24 hrs post-last dose by propidium iodide staining based flow cytometry; assay type: functional, organism-based
Mus musculus [10] = assay: Protection against CTX-induced myelosuppression in BALB/c mouse assessed as effect on WBC level at 10 mg/kg, ip administered daily for 7 days starting from 3 days post-CTX challenge measured 24 hrs post-last dose (reference value: 10.34 +/- 1.4 10^9/L); assay type: functional
Mus musculus [11] = assay: as §2, with “increase” for “decrease”, “S-phase” for “G0/G1-phase”; assay type: functional, organism-based
Mus musculus [12] = assay: Protection against CTX-induced myelosuppression in BALB/c mouse assessed as upregulation of MEK expression at 5 to 10 mg/kg, ip administered daily for 7 days starting from 3 days post-CTX challenge measured 24 hrs post-last dose by Western blot analysis; assay type: functional, organism-based
Mus musculus [13] = assay: Protection against CTX-induced myelosuppression in BALB/c mouse assessed as effect on PLT level at 10 mg/kg, ip administered daily for 7 days starting from 3 days post-CTX challenge measured 24 hrs post-last dose (reference value: 628.5 +/- 66.09 10^9/L); assay type: functional
Mus musculus [14] = assay: Protection against CTX-induced toxicity in BALB/c mouse assessed as restoration of normal food intake at 5 to 10 mg/kg, ip administered daily for 7 days starting from 3 days post-CTX challenge and measured during compound dosing; assay type: functional, organism-based
Mus musculus [15] = assay: Protection against CTX-induced toxicity in BALB/c mouse assessed as loss of cool skin at 5 to 10 mg/kg, ip administered daily for 7 days starting from 3 days post-CTX challenge and measured during compound dosing; assay type: functional, organism-based
Mus musculus [16] = assay: Protection against CTX-induced toxicity in BALB/c mouse assessed as loss of hematuria at 5 to 10 mg/kg, ip administered daily for 7 days starting from 3 days post-CTX challenge and measured during compound dosing; assay type: functional, organism-based
Mus musculus [17] = assay: Protection against CTX-induced myelosuppression in BALB/c mouse assessed as effect on PLT level at 5 mg/kg, ip administered daily for 7 days starting from 3 days post-CTX challenge measured 24 hrs post-last dose (reference value: 628.5 +/- 66.09 10^9/L); assay type: functional
Mus musculus [18] = assay: Protection against CTX-induced myelosuppression in BALB/c mouse assessed as improvement in immunity by measuring spleen index at 5 mg/kg, ip administered daily for 7 days starting from 3 days post-CTX challenge measured 24 hrs post-last dose (reference value: 8.94 +/- […]); assay type: functional
Mus musculus [19] = assay: Protection against CTX-induced toxicity in BALB/c mouse assessed as loss of diarrhea at 5 to 10 mg/kg, ip administered daily for 7 days starting from 3 days post-CTX challenge and measured during compound dosing; assay type: functional, organism-based
Mus musculus [20] = assay: Protection against CTX-induced myelosuppression in BALB/c mouse assessed as upregulation of phosphorylated ERK expression at 5 to 10 mg/kg, ip administered daily for 7 days starting from 3 days post-CTX challenge measured 24 hrs post-last dose by Western blot analysis; assay type: functional, organism-based
Mus musculus [21] = assay: Protection against CTX-induced myelosuppression in BALB/c mouse assessed as improvement in hematopoiesis by decrease in thrombopoietin level at 5 to 10 mg/kg, ip administered daily for 7 days starting from 3 days post-CTX challenge measured 24 hrs post-last dose by ELISA; assay type: functional, organism-based
Mus musculus [22] = assay: Protection against CTX-induced myelosuppression in BALB/c mouse assessed as effect on WBC level at 5 mg/kg, ip administered daily for 7 days starting from 3 days post-CTX challenge measured 24 hrs post-last dose (reference value: 10.34 +/- 1.4 10^9/L); assay type: functional
Mus musculus [23] = assay: Protection against CTX-induced toxicity in BALB/c mouse assessed as restoration of normal body weight at 5 to 10 mg/kg, ip administered daily for 7 days starting from 3 days post-CTX challenge and measured during compound dosing; assay type: functional, organism-based
Mus musculus [24] = assay: as §1, with “measuring increase” for “decrease”, “bone marrow nucleated cells” for “erythropoietin level”, “inverted microscopic method” for “ELISA”; assay type: functional, organism-based
Mus musculus [25] = assay: as §2, with “increase” for “decrease”, “G2/M-phase” for “G0/G1-phase”; assay type: functional, organism-based
Mus musculus [26] = assay: as §1, with “measuring increase” for “decrease”, “colonies of granulocyte macrophage” for “erythropoietin level”, “inverted microscopic method” for “ELISA”; assay type: functional, organism-based
Mus musculus [27] = assay: as §1, with “measuring increase” for “decrease”, “colonies of megakaryocytes” for “erythropoietin level”, “inverted microscopic method” for “ELISA”; assay type: functional, organism-based
Mus musculus [28] = assay: as §1, with “measuring increase” for “decrease”, “colonies of erythroid” for “erythropoietin level”, “inverted microscopic method” for “ELISA”; assay type: functional, organism-based
Mus musculus [29] = assay: Protection against CTX-induced myelosuppression in BALB/c mouse assessed as effect on HGB level at 10 mg/kg, ip administered daily for 7 days starting from 3 days post-CTX challenge measured 24 hrs post-last dose (reference value: 113.2 +/- 6.66 g/L); assay type: functional
Mus musculus [30] = assay: as §1, with “measuring increase” for “decrease”, “burst forming units of erythroid” for “erythropoietin level”, “inverted microscopic method” for “ELISA”; assay type: functional, organism-based
Mus musculus [31] = assay: Protection against CTX-induced myelosuppression in BALB/c mouse assessed as effect on RBC level at 5 mg/kg, ip administered daily for 7 days starting from 3 days post-CTX challenge measured 24 hrs post-last dose (reference value: 8.63 +/- 0.68 10^12/L); assay type: functional
[32] = Toxicity in BALB/c mouse assessed as change in appetite at 5 to 10 mg/kg, ip administered daily for 7 days measured during compound dosing; assay type: organism-based; details: in vivo, 168 h
Mus musculus [33] = assay: as §1, with “granulocyte macrophage-colony stimulating factor” for “erythropoietin”; assay type: functional, organism-based

For `COc1ccc(C[C@H]2COC(=O)[C@@H]2Cc2ccc(OC(=O)[C@@H](N)C(C)C)c(OC)c2)cc1OC`, the Activity (Mus musculus [1]) was 9.24 ×10¹² /L, the Activity [2] was “Non-Toxic” and the Activity [3] was “Non-Toxic”. For the same compound, the Activity (Mus musculus [4]) was “Active”, the Activity (Mus musculus [5]) was 120 g/L and the Activity index (Mus musculus [6]) was 8.47 mg/g. The Activity (Mus musculus [7]) was “Active”, the Activity [8] was “Non-Toxic” and the Activity (Mus musculus [9]) was “Active”. For the same compound, the Activity (Mus musculus [10]) was 8.65 ×10⁹ /L, the Activity (Mus musculus [11]) was “Active” and the Activity (Mus musculus [12]) was “Active”. For the same compound, the Activity (Mus musculus [13]) was 848 ×10⁹ /L, the Activity (Mus musculus [14]) was “Active” and the Activity (Mus musculus [15]) was “Active”. The Activity (Mus musculus [16]) was “Active”, the Activity (Mus musculus [17]) was 796 ×10⁹ /L and the Activity index (Mus musculus [18]) was 8.66 mg/g. The Activity (Mus musculus [19]) was “Active”, the Activity (Mus musculus [20]) was “Active” and the Activity (Mus musculus [21]) was “Active”. The Activity (Mus musculus [22]) was 9.29 ×10⁹ /L, the Activity (Mus musculus [23]) was “Active” and the Activity (Mus musculus [24]) was “Active”. The Activity (Mus musculus [25]) was “Active”, the Activity (Mus musculus [26]) was “Active” and the Activity (Mus musculus [27]) was “Active”. For the same compound, the Activity (Mus musculus [28]) was “Active”, the Activity (Mus musculus [29]) was 125.5 g/L and the Activity (Mus musculus [30]) was “Active”. The Activity (Mus musculus [31]) was 8.8 ×10¹² /L, the Activity [32] was “Non-Toxic” and the Activity (Mus musculus [33]) was “Active”.
